Consider one compound from patent US20150073005A1, “COMPOSITION FOR HAIR GROWTH” (ASAHI GLASS COMPANY, LIMITED, priority 2012, published 2015).

In this series the test system is C3H/HeNSIc mouse. Particulars: in vivo.

Excerpt: Hairs on the back of each C3H/HeNSIc mouse (male, 8 weeks old) were carefully dehaired in an area of 2 cm×3 cm to form a medicine application surface. The next day (the day before initiation of the test), mice which were confirmed to have no damage on the application surface of the back, to have a pink color over the entire application surface and to be in the telogen stage of hair growth, were bred in a stainless steel cage (185 W×260 D×175 H (mm)) in three groups each group consisting of 10 mice.
Every day, the application surface was inspected before the application, and the day on which hair growth was observed, was taken as the hair growth day.

As to `CC(C)OC(=O)CCC/C=C\C[C@@H]1[C@@H](/C=C/C(F)(F)COc2ccccc2)[C@H](O)C[C@@H]1O` [0.0015% Tafluprost, Tafluprost], the “Blackening of the skin at the application surface as visually observed” value is on record as “^aHair growth without blackening of the skin as visually observed”.
